In patent US11260084B2 (priority 2017, dated 2022):

Tests used:
[1] = system: Eimeria acervulina, Eimeria maxima and Eimeria tenella; test: Example 8 broiler study under severe coccidiosis challenge conditions; assay type: in vivo, Ross 708 broiler chicks; conditions: 28-day mortality; compared to the challenged control
Text: EXAMPLE 8 of the present disclosure describes a study to evaluate the efficacy of a combination of xylanase (10 U/g feed), B. licheniformis strain PWD-1 (1×10^5 CFU/g feed), and B. amyloliquefaciens strain Ba-BPD1 (5×10^5 CFU/g feed) referred to as “Xyl+B+Y”, to minimize the severity of gut lesions and improve overall livability of broiler chickens fed standard corn-soy diets and reared under severe coccidiosis challenge conditions. In the study chicks were twice challenged with a live vaccine containing the live oocysts of highly-immunogenic, coccidiostat-sensitive strains of Eimeria acervulina, Eimeria maxima and Eimeria tenella by oral gavage and the Xyl+B+Y combination was compared to salinomycin sodium which is referred to as “Coccidiostat” in FIG. 13. […]
MATERIALS AND METHODS: Four hundred male Ross 708 broiler chicks were randomly assigned to 1 of 4 dietary treatments, with 7 replicate battery cages per treatment (except Treatment 1, the unchallenged positive control, which contained 4 replicate cages), and 16 birds per cage. […] The key parameters evaluated were upper-tract intestinal lesion scores, middle-tract intestinal lesion scores, mortality/livability, and feed conversion ratio (FCR).

[2] = system: Clostridium perfringens, Eimeria acervulina, and Eimeria maxima, and Eimeria tenella; assay type: in vivo, Ross 708 broilers; conditions: at 21-days and 42-days of age; versus control

CC[C@@H](C(=O)[C@@H](C)[C@@H](O)[C@H](C)[C@@H]1O[C@@H]([C@@H](CC)C(=O)O)CC[C@@H]1C)[C@H]1O[C@]2(C=C[C@@H](O)[C@]3(CC[C@@](C)([C@H]4CC[C@](O)(CC)[C@H](C)O4)O3)O2)[C@H](C)C[C@@H]1C [Coccidiostat, salinomycin sodium]
reduction of mortality [1]: 25%

bacitracin methylene disalicylate [AGP]
effect on mortality [2]: did not significantly improve
